pIC50: −log10 of the molar value.
Assay: Inhibition of SARS-CoV-2 3CL protease Q189A mutant by FRET assay
Set-up: species or system Severe acute respiratory syndrome coronavirus 2

With `O=c1c(O[C@@H]2OC(O)[C@@H](O)[C@H](O)[C@@H]2O)c(-c2ccc(O)c(O)c2)oc2cc(O)cc(O)c12` (stereo partly specified) the pIC50 was 4.62.
